# Source: PubChem BioAssay AID2769 (The Scripps Research Institute Molecular Screening Center, 2010)
# Biological target: VIM-2 metallo-beta-lactamase (Pseudomonas aeruginosa) (UniProt Q9K2N0)
# Experiment: inhibition of VIM-2 nitrocefin hydrolysis – biochemical, epi-absorbance, dose response, late-stage follow-up (AID 2769)
# Conditions: purified VIM-2, nitrocefin absorbance hydrolysis
row,SMILES,IC50 [µM]
1,[Hg+][c]1ccccc1,1
2,O=C(O)c1cc[c]([Hg][Cl])cc1,2.59
3,Cc1cc[c]([Hg+])cc1,0.814
4,O=C(O)c1ccc[c]([Hg+])c1,0.817
5,CC(=O)Nc1cc[c]([Hg+])cc1,2.58
